Measurements: patent publication US9926276B2, “Substituted benzamides with activity towards EP4 receptors” (DRACONIS PHARMA, S.L., priority 2013, dated 2018)

Columns and labels:
human EP4 receptor [1] = biological target: T1, human EP4 receptor (Homo sapiens, UniProt P35408); assay: Measurement of cAMP responses by Homogeneous Time Resolved Fluorescence (Test 2); assay type: cell-based; set-up: expressed in transfected cells; details: for Results of Test 2 (Functional assay, antagonist % inh): at 10 μM, PGE2 1 nM, HEK-293 cells stably expressing human EP4; for inhibition at 10 µM: HEK293, PGE2 1 nM, HEK-293 cells stably expressing human EP4, read-out: Results of Test 2 (Functional assay, antagonist % inh)
T1 sequence (P35408 whole entry): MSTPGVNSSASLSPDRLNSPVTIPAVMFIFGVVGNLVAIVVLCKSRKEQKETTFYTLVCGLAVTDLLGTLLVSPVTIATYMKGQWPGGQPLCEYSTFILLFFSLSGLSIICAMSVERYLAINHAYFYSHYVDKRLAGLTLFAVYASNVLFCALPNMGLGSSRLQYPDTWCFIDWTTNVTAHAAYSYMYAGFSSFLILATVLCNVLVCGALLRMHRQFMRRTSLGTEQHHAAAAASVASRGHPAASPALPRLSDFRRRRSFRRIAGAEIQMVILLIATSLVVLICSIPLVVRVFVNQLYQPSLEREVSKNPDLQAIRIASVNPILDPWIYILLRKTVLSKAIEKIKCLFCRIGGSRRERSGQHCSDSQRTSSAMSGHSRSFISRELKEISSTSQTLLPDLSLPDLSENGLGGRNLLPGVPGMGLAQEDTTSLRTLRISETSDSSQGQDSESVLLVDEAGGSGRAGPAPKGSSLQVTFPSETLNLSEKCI
Protocol: Test 2: Measurement of cAMP Responses by Homogeneous Time Resolved Fluorescence
cAMP measurements on HEK-293 cells that stably expressed human EP4 receptors were performed by using a system based on Homogeneous Time Resolved Fluorescense (HTRF). This technology allows the direct measurement of cAMP in living cells. The principle of this assay is based on competition between cAMP produced by cells and cAMP-d2 conjugate for the binding with monoclonal anti-cAMP-cryptate conjugate. The HTRF cAMP kit from CisBio was used according to the manufacturer's directions. The experimental procedure was performed as stated below.
Suspended cells (30,000 cells per well) were added to 96-well culture plates in 30 μl of Optimem supplemented with 500 μM IBMX. Compounds were then added in 10 μl of stimulation buffer and incubated at 25° C. for 30 minutes followed by 10 μl of PGE2 to a final concentration of 1 nM. After 30 minutes at 25° C., the reaction was stopped lysing the cells with a mixture of 25 μl of cryptate and 25 μl of cAMP-d2 prepared in the lysis buffer supplied by the manufacturer. Plates were incubated for an additional hour at room temperature and read at 665 nm/620 nm using an UltraEvolution Plate reader (Tecan).
Antagonist percentage inhibition was calculated relating compounds activity to the 0% inhibition of the wells incubated with 1 nM PGE2 alone and 100% inhibition of the wells incubated with 1 nM PGE2 plus 1 μM of the reference antagonist.

human EP4 receptor [2] = biological target: T1, human EP4 receptor; assay: Human EP4 receptor radioligand binding assay (Test 1); set-up: expressed in transfected cells; host or cells: HEK-293 cell membranes; details: [3H]-PGE2 1 nM, transfected HEK-293 cell membranes; for Results of Test 1 (Binding assay, % inh): at 10 μM; for inhibition at 10 µM: read-out: Results of Test 1 (Binding assay, % inh)
Protocol: Test 1: Human EP4 Receptor Radioligand Binding Assay
To investigate binding properties of EP4 receptor ligands to human EP4 receptor, transfected HEK-293 cell membranes and [3H]-PGE2 (Perkin Elmer) were used. In 96-well plates the assay was carried out with a total reaction volume of 250 μl, containing 25 μl of membrane suspension (30 μg protein/well), 25 μl of [3H]-PGE2 (1 nM) in either absence or presence of 25 μl of either buffer or PGE2 (10 μM) for total and non-specific binding, respectively. Binding buffer contained 25 mM MES, 10 mM MgCl2 and 1 mM EDTA at pH 6.0. Plates were incubated at 25° C. for 120 minutes. After the incubation period, 200 μl of incubate were transferred to MultiScreen HTS, FB plates (Millipore), filtered and plates were washed 6 times with ice-cold 10 mM MES, 0.01% BSA at pH 6.0. Filters were dried and counted in a MicroBeta scintillation counter (Perkin-Elmer) using EcoScint liquid scintillation cocktail.
Percentage inhibition was calculated relating compounds activity to the 0% inhibition of the wells incubated with 1 nM [3H]-PGE2 alone (total binding) and 100% inhibition of the wells incubated with 1 nM [3H]-PGE2 plus 10 μM PGE2 (non-specific binding).

| Results of Test 2 (Functional assay, antagonist % inh) (human EP4 receptor [1]) | Results of Test 1 (Binding assay, % inh) (human EP4 receptor [2]) | inhibition at 10 µM (human EP4 receptor [1]) | inhibition at 10 µM (human EP4 receptor [2]) | Compound |
| --- | --- | --- | --- | --- |
|  |  | > 75% | > 75% | O=C(O)c1cc(Cl)c(NC(=O)c2nc(N3CCCCC3)ccc2Cl)c(Cl)c1 [Example 57, 3,5-Dichloro-4-(3-chloro-6-(piperidin-1-yl)picolinamido)benzoic acid] |
|  |  | > 75% | > 75% | O=C(O)c1cc(Cl)c(NC(=O)c2cc(-c3nccc(C(F)(F)F)n3)ccc2Cl)c(Cl)c1 [Example 60, Sodium 3,5-dichloro-4-(2-chloro-5-(4-(trifluoromethyl)pyrimidin-2-yl)benzamido)benzoate] |

Further lines, the compound ahead of its results:

| Compound | Results of Test 2 (Functional assay, antagonist % inh) (human EP4 receptor [1]) | Results of Test 1 (Binding assay, % inh) (human EP4 receptor [2]) | inhibition at 10 µM (human EP4 receptor [1]) | inhibition at 10 µM (human EP4 receptor [2]) |
| --- | --- | --- | --- | --- |
| Cc1ccc(-c2cccc(Cl)c2)cc1C(=O)Nc1cc(C(=O)O)ccc1C(C)C [Example 45, 3-(3′-Chloro-4-methylbiphenyl-3-ylcarboxamido)-4-isopropylbenzoic acid] | $ (% inh >75) | # (% inh >75) |  |  |
| CC(C)c1ccc(C(=O)O)cc1NC(=O)c1cc(-c2cccc(Cl)c2)ccc1Cl [Example 46, 3-(3′,4-Dichlorobiphenyl-3-ylcarboxamido)-4-isopropylbenzoic acid] | $ (% inh >75) | # (% inh >75) |  |  |
| O=C(O)c1cc(Cl)c(NC(=O)c2nc(-c3cccc(Cl)c3)ccc2Cl)c(Cl)c1 [Example 47, 3,5-Dichloro-4-(3-chloro-6-(3-chlorophenyl)picolinamido)benzoic acid] |  |  | > 75% | > 75% |
| Cc1cc(C(=O)O)cc(Cl)c1NC(=O)c1nc(-c2cccc(Cl)c2)ccc1Cl [Example 48, 3-Chloro-4-(3-chloro-6-(3-chlorophenyl)-picolinamido)-5-methylbenzoic acid] |  |  | > 75% | > 75% |
| Cc1ccc(-c2cccc(C(F)(F)F)c2)cc1C(=O)Nc1c(C)cc(C(=O)[O-])cc1C.[Na+] [Example 58, Sodium 3,5-dimethyl-4-(4-methyl-3′-(trifluoromethyl)biphenyl-3-ylcarboxamido)benzoate] | $ (% inh >75) | # (% inh >75) |  |  |
| COc1cc(Cl)cc(-c2ccc(C)c(C(=O)Nc3c(C)cc(C(=O)O)cc3C)c2)c1 [Example 59, 4-(3′-Chloro-5′-methoxy-4-methylbiphenyl-3-ylcarboxamido)-3,5-dimethylbenzoic acid] | $ (% inh >75) | # (% inh >75) |  |  |
